Results as given in ChEMBL document CHEMBL1154412, “In vitro activity of telavancin against gram-positive clinical isolates recently obtained in Europe” (Antimicrob Agents Chemother, 2007).
Values after ≈ are worked out from the molar mass of the structure shown.

Experiments:
[1] = tested on: Enterococcus faecalis; experiment: Antimicrobial activity against vancomycin-resistant Enterococcus faecalis after 20 to 24 hrs by broth microdilution method; type: functional
[2] = tested on: Streptococcus sp. 'group A'; experiment: Antimicrobial activity against Streptococcus group A after 20 to 24 hrs by broth microdilution method; type: functional
[3] = Protein binding in human plasma; type: ADME, cell-free; details: read-out: PB (converted)
[4] = tested on: Homo sapiens; experiment: Plasma concentration in human at 7.5 mg/kg; type: ADME, organism-based; design: dose 7.5 mg/kg; details: in vivo
[5] = tested on: Staphylococcus aureus; experiment: Antimicrobial activity against methicillin-resistant Staphylococcus aureus after 20 to 24 hrs by broth microdilution method; type: functional
[6] = tested on: Streptococcus viridans; experiment: Antimicrobial activity against Streptococcus viridans after 20 to 24 hrs by broth microdilution method; type: functional
[7] = tested on: Enterococcus faecium; experiment: Antibacterial activity against vancomycin-susceptible Enterococcus faecium after 20 to 24 hrs by broth microdilution method; type: functional
[8] = tested on: Streptococcus sp. 'group B'; experiment: Antimicrobial activity against Streptococcus group B after 20 to 24 hrs by broth microdilution method; type: functional
[9] = tested on: Streptococcus pneumoniae; experiment: Antibacterial activity against penicillin-intermediate Streptococcus pneumoniae after 20 to 24 hrs by broth microdilution method; type: functional
[10] = tested on: Streptococcus pneumoniae; experiment: Antibacterial activity against penicillin-resistant Streptococcus pneumoniae after 20 to 24 hrs by broth microdilution method; type: functional
[11] = tested on: Staphylococcus; experiment: Antimicrobial activity against methicillin-resistant coagulase-negative Staphylococcus after 20 to 24 hrs by broth microdilution method; type: functional
[12] = tested on: Streptococcus pneumoniae; experiment: Antibacterial activity against penicillin-susceptible Streptococcus pneumoniae after 20 to 24 hrs by broth microdilution method; type: functional
[13] = tested on: Enterococcus faecalis; experiment: Antimicrobial activity against vancomycin-susceptible Enterococcus faecalis after 20 to 24 hrs by broth microdilution method; type: functional
[14] = tested on: Staphylococcus; experiment: Antimicrobial activity against methicillin-susceptible coagulase-negative Staphylococcus after 20 to 24 hrs by broth microdilution method; type: functional
[15] = tested on: Enterococcus faecium; experiment: Antibacterial activity against vancomycin-resistant Enterococcus faecium after 20 to 24 hrs by broth microdilution method; type: functional
[16] = tested on: Staphylococcus aureus; experiment: Antimicrobial activity against methicillin-susceptible Staphylococcus aureus after 20 to 24 hrs by broth microdilution method; type: functional

SMILES: CCCCCCCCCCNCCN[C@@]1(C)C[C@H](O[C@H]2[C@H](Oc3c4cc5cc3Oc3ccc(cc3Cl)[C@@H](O)[C@@H](NC(=O)[C@@H](CC(C)C)NC)C(=O)N[C@@H](CC(N)=O)C(=O)N[C@H]5C(=O)N[C@H]3C(=O)N[C@H](C(=O)N[C@H](C(=O)O)c5cc(O)c(CNCP(=O)(O)O)c(O)c5-c5cc3ccc5O)[C@H](O)c3ccc(c(Cl)c3)O4)O[C@H](CO)[C@@H](O)[C@@H]2O)O[C@@H](C)[C@H]1O [TELAVANCIN]
- MIC50 [1]: 4 µg/mL (≈ 2.28 µM)
- MIC90 [1]: 8 µg/mL (≈ 4.56 µM)
- MIC [2]: 0.03 µg/mL (≈ 0.0171 µM)
- MIC50 [2]: 0.03 µg/mL (≈ 0.0171 µM)
- MIC90 [2]: 0.06 µg/mL (≈ 0.0342 µM)
- fraction unbound [3]: 0.1
- Cp [4]: 96.7 µg/mL
- MIC50 [5]: 0.25 µg/mL (≈ 0.142 µM)
- MIC90 [5]: 0.25 µg/mL (≈ 0.142 µM)
- MIC50 [6]: 0.06 µg/mL (≈ 0.0342 µM)
- MIC90 [6]: 0.06 µg/mL (≈ 0.0342 µM)
- MIC50 [7]: 0.12 µg/mL (≈ 0.0684 µM)
- MIC90 [7]: 0.25 µg/mL (≈ 0.142 µM)
- MIC50 [8]: 0.06 µg/mL (≈ 0.0342 µM)
- MIC90 [8]: 0.06 µg/mL (≈ 0.0342 µM)
- MIC50 [9]: 0.015 µg/mL (≈ 0.00854 µM)
- MIC90 [9]: 0.03 µg/mL (≈ 0.0171 µM)
- MIC [10]: 0.015 µg/mL (≈ 0.00854 µM)
- MIC50 [10]: 0.015 µg/mL (≈ 0.00854 µM)
- MIC90 [10]: 0.03 µg/mL (≈ 0.0171 µM)
- MIC50 [11]: 0.25 µg/mL (≈ 0.142 µM)
- MIC90 [11]: 0.25 µg/mL (≈ 0.142 µM)
- MIC50 [12]: 0.015 µg/mL (≈ 0.00854 µM)
- MIC90 [12]: 0.03 µg/mL (≈ 0.0171 µM)
- MIC50 [13]: 0.25 µg/mL (≈ 0.142 µM)
- MIC90 [13]: 0.5 µg/mL (≈ 0.285 µM)
- MIC50 [14]: 0.25 µg/mL (≈ 0.142 µM)
- MIC90 [14]: 0.25 µg/mL (≈ 0.142 µM)
- MIC50 [15]: 1 µg/mL (≈ 0.57 µM)
- MIC90 [15]: 2 µg/mL (≈ 1.14 µM)
- MIC50 [16]: 0.25 µg/mL (≈ 0.142 µM)
- MIC90 [16]: 0.25 µg/mL (≈ 0.142 µM)
